Experimental data as given in PubChem BioAssay (NCI).
Where “and” joins values, the source holds several entries; their conditions need not be identical. Equal values may be shown once.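 GI50 = concentration required for 50% inhibition of growth. TGI denotes the concentration required for complete inhibition of growth.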

Tests used:
Assay in all cases: inhibition of tumour cell growth, NCI panel, 384-well format
ACHN renal = test system: ACHN renal
MDA-MB-468 breast = test system: MDA-MB-468 breast
M14 melanoma = test system: M14 melanoma
CAKI-1 renal = test system: CAKI-1 renal
MDA-MB-231 breast = test system: MDA-MB-231 breast
HS 578T breast = test system: HS 578T breast
BT-549 breast = test system: BT-549 breast
A549 NSCLC = test system: A549 NSCLC
U251 glioblastoma = test system: U251 glioblastoma
MDA-MB-435 melanoma = test system: MDA-MB-435 melanoma
RXF 393 renal = test system: RXF 393 renal
UACC-62 melanoma = test system: UACC-62 melanoma
NCI/ADR-RES ovarian = test system: NCI/ADR-RES ovarian
HL-60(TB) leukemia = test system: HL-60(TB) leukemia
IGROV1 ovarian = test system: IGROV1 ovarian
786-0 renal = test system: 786-0 renal
HOP-62 NSCLC = test system: HOP-62 NSCLC
SF-539 CNS = test system: SF-539 CNS
SK-OV-3 ovarian = test system: SK-OV-3 ovarian
SN12C renal = test system: SN12C renal
DU-145 prostate = test system: DU-145 prostate
SK-MEL-5 melanoma = test system: SK-MEL-5 melanoma
COLO 205 colon = test system: COLO 205 colon
OVCAR-8 ovarian = test system: OVCAR-8 ovarian
HOP-92 NSCLC = test system: HOP-92 NSCLC
SK-MEL-28 melanoma = test system: SK-MEL-28 melanoma
OVCAR-4 ovarian = test system: OVCAR-4 ovarian
T-47D breast = test system: T-47D breast
MCF7 breast = test system: MCF7 breast
KM12 colon = test system: KM12 colon
HT29 colon = test system: HT29 colon
RPMI-8226 leukemia = test system: RPMI-8226 leukemia
NCI-H23 lung = test system: NCI-H23 lung
CCRF-CEM leukemia = test system: CCRF-CEM leukemia
K-562 leukemia = test system: K-562 leukemia
HCT-116 colon = test system: HCT-116 colon
SNB-75 CNS = test system: SNB-75 CNS
NCI-H460 NSCLC = test system: NCI-H460 NSCLC
EKVX NSCLC = test system: EKVX NSCLC
PC-3 prostate = test system: PC-3 prostate
A498 renal = test system: A498 renal
LOX IMVI melanoma = test system: LOX IMVI melanoma
HCC-2998 colon = test system: HCC-2998 colon
MOLT-4 leukemia = test system: MOLT-4 leukemia
SNB-19 CNS = test system: SNB-19 CNS
MALME-3M melanoma = test system: MALME-3M melanoma
HCT-15 colon = test system: HCT-15 colon
SK-MEL-2 melanoma = test system: SK-MEL-2 melanoma
OVCAR-3 ovarian = test system: OVCAR-3 ovarian
SF-295 CNS = test system: SF-295 CNS
SF-268 CNS = test system: SF-268 CNS
TK-10 renal = test system: TK-10 renal
OVCAR-5 ovarian = test system: OVCAR-5 ovarian
NCI-H322M lung = test system: NCI-H322M lung
UO-31 renal = test system: UO-31 renal
SW-620 colon = test system: SW-620 colon
NCI-H226 lung = test system: NCI-H226 lung

`CCc1nc(C(N)=O)c(Nc2ccc(N3CCC(N4CCN(C)CC4)CC3)c(OC)c2)nc1NC1CCOCC1` was tested, and the GI50 (ACHN renal) was 0.593 µM and 0.391 µM, the TGI (ACHN renal) was over 100 µM and the GI50 (MDA-MB-468 breast) was 2.15 µM. For the same compound, the GI50 (M14 melanoma) was 0.402 µM and 0.239 µM, the TGI (M14 melanoma) was 1.79 µM and 1.16 µM and the GI50 (CAKI-1 renal) was 0.247 µM and 0.155 µM. For the same compound, the TGI (CAKI-1 renal) was 0.556 µM, the GI50 (MDA-MB-231 breast) was 0.474 µM and 0.37 µM and the TGI (MDA-MB-231 breast) was 2.57 µM and 1.76 µM. For the same compound, the GI50 (HS 578T breast) was 1.18 µM, the TGI (HS 578T breast) was 3.54 µM and the GI50 (BT-549 breast) was 0.551 µM and 0.339 µM. The TGI (BT-549 breast) was 2.58 µM and 1.73 µM, the GI50 (A549 NSCLC) was 0.533 µM and 0.259 µM and the GI50 (U251 glioblastoma) was 6.48 µM and 0.834 µM. For the same compound, the GI50 (MDA-MB-435 melanoma) was 0.704 µM and 0.329 µM, the TGI (MDA-MB-435 melanoma) was over 100 µM and the GI50 (RXF 393 renal) was 1.17 µM and 0.208 µM. For the same compound, the GI50 (UACC-62 melanoma) was 0.396 µM and 0.214 µM, the TGI (UACC-62 melanoma) was 1.32 µM and the GI50 (NCI/ADR-RES ovarian) was 3.26 µM and 2.24 µM. The TGI (NCI/ADR-RES ovarian) was over 100 µM, the GI50 (HL-60(TB) leukemia) was 0.357 µM and 0.185 µM and the TGI (HL-60(TB) leukemia) was 1.03 µM and 0.403 µM. The GI50 (IGROV1 ovarian) was 0.335 µM and 0.179 µM, the TGI (IGROV1 ovarian) was 1.62 µM and 0.484 µM and the GI50 ([…]-0 renal) was 1.03 µM and 0.313 µM. For the same compound, the TGI (786-0 renal) was 5.87 µM and 1.58 µM, the GI50 (HOP-62 NSCLC) was 1.23 µM and 0.392 µM and the GI50 (SF-539 CNS) was 1.91 µM and 0.638 µM. The TGI (SF-539 CNS) was 6.72 µM and 2.32 µM, the GI50 (SK-OV-3 ovarian) was 0.339 µM and 0.16 µM and the GI50 (SN12C renal) was 0.168 µM and 0.0671 µM. For the same compound, the TGI (SN12C renal) was over 100 µM, the GI50 (DU-145 prostate) was 0.491 µM and 0.322 µM and the GI50 (SK-MEL-5 melanoma) was 0.661 µM and 0.406 µM. The TGI (SK-MEL-5 melanoma) was over 100 µM, the GI50 (COLO 205 colon) was 0.495 µM and 0.303 µM and the TGI (COLO 205 colon) was 5.23 µM and 1.1 µM. For the same compound, the GI50 (OVCAR-8 ovarian) was 5.1 µM and 0.758 µM, the TGI (OVCAR-8 ovarian) was over 100 µM and the GI50 (HOP-92 NSCLC) was 0.114 µM and 0.0363 µM. For the same compound, the TGI (HOP-92 NSCLC) was 0.608 µM and 0.213 µM, the GI50 (SK-MEL-28 melanoma) was 0.227 µM and the TGI (SK-MEL-28 melanoma) was 0.986 µM. For the same compound, the GI50 (OVCAR-4 ovarian) was over 100 µM, the TGI (OVCAR-4 ovarian) was over 100 µM and the TGI (T-47D breast) was over 100 µM. The GI50 (MCF7 breast) was 0.383 µM and 0.247 µM, the GI50 (KM12 colon) was 0.0353 µM and 0.0165 µM and the GI50 (HT29 colon) was 0.282 µM and 0.174 µM. The GI50 (RPMI-8226 leukemia) was 0.975 µM and 0.255 µM, the TGI (RPMI-8226 leukemia) was 4.2 µM and 0.984 µM and the GI50 (NCI-H23 lung) was 0.3 µM and 0.123 µM. For the same compound, the TGI (NCI-H23 lung) was 5.54 µM and 0.617 µM, the GI50 (CCRF-CEM leukemia) was 1.73 µM and 0.828 µM and the TGI (CCRF-CEM leukemia) was 3.39 µM and 2.1 µM. For the same compound, the GI50 (K-562 leukemia) was 1.25 µM, the TGI (K-562 leukemia) was 3.94 µM and the GI50 (HCT-116 colon) was 0.494 µM and 0.294 µM. For the same compound, the TGI (HCT-116 colon) was 5.95 µM and 3.07 µM, the GI50 (SNB-75 CNS) was 1.36 µM and the TGI (SNB-75 CNS) was 4.16 µM. For the same compound, the GI50 (NCI-H460 NSCLC) was 0.465 µM and 0.292 µM, the GI50 (EKVX NSCLC) was 0.463 µM and the TGI (EKVX NSCLC) was 99.3 µM. The GI50 (PC-3 prostate) was 0.385 µM and 0.672 µM, the TGI (PC-3 prostate) was over 100 µM and the GI50 (A498 renal) was 0.619 µM and 0.283 µM. For the same compound, the GI50 (LOX IMVI melanoma) was 0.775 µM and 0.371 µM, the GI50 (HCC-2998 colon) was 0.18 µM and 0.253 µM and the TGI (HCC-2998 colon) was 5.55 µM and 3.08 µM. For the same compound, the GI50 (MOLT-4 leukemia) was 0.371 µM and 0.191 µM, the TGI (MOLT-4 leukemia) was 1.33 µM and 0.375 µM and the GI50 (SNB-19 CNS) was 3.39 µM and 1.08 µM. The TGI (SNB-19 CNS) was over 100 µM, the GI50 (MALME-3M melanoma) was 0.302 µM and 0.155 µM and the TGI (MALME-3M melanoma) was 1.7 µM and 1.06 µM. The GI50 (HCT-15 colon) was 0.458 µM and 0.318 µM, the TGI (HCT-15 colon) was over 100 µM and the GI50 (SK-MEL-2 melanoma) was 0.242 µM. The TGI (SK-MEL-2 melanoma) was 1.3 µM, the GI50 (OVCAR-3 ovarian) was 1.17 µM and 0.584 µM and the TGI (OVCAR-3 ovarian) was > 25.6 µM and 4.32 µM. The GI50 (SF-295 CNS) was 4.62 µM and 1.04 µM, the TGI (SF-295 CNS) was > 20.9 µM and 3.07 µM and the GI50 (SF-268 CNS) was 2.19 µM and 1.36 µM. For the same compound, the TGI (SF-268 CNS) was over 26.5 µM, the GI50 (TK-10 renal) was 1.68 µM and 0.818 µM and the GI50 (OVCAR-5 ovarian) was 0.503 µM and 0.216 µM. The GI50 (NCI-H322M lung) was 0.674 µM and 0.246 µM, the GI50 (UO-31 renal) was 0.457 µM and 0.231 µM and the GI50 (SW-620 colon) was 0.587 µM and 0.444 µM. For the same compound, the TGI (SW-620 colon) was 2.07 µM and 1.58 µM, the GI50 (NCI-H226 lung) was 0.584 µM and 0.593 µM and the TGI (NCI-H226 lung) was 4.61 µM.
